Assay [1] deals with cells of rat pituitary glands. Description: in vitro GH release assay in cultured rat pituitary cells, hpGRF(1-40)-OH as standard. The assay is classed as cell-based. The conditions noted are these: for Comparison %: GH release at equimolar concentrations relative to hpGRF(1-40)-OH standard (100%), incubation 3 to 4 hours, ir GH by radioimmunoassay. The protocol: To determine the effectiveness of the various synthetic peptides to promote the release of growth hormone, in vitro assays are carried out using synthetic hpGRF(1-40)--OH as a standard in side-by-side comparison with equimolar concentrations of the various other analogs and fragments synthesized. Cultures are used which include cells of rat pituitary glands removed some three to five days previously. Cultures which are considered optimal for the secretion of growth hormone are used for the comparative testing, in the general manner described in Vale et al. Endocrinology, 91, 562-572 (1972) and as more particularly described in Vale et al. Endocrinology, (1983), in press. Incubation with the substance to be tested is carried out for 3 to 4 hours, and aliquots of the culture medium are removed and processed to measure their contents in immunoreactive GH(ir GH) by a well-characterized radioimmunoassay.

For assay [2], the system named is freely running normal male rats. Nature of the assay: in vivo GH secretion after injection through an indwelling catheter, FLA-63 pretreated rats. More on the design: species or system rat. The conditions noted are these: blood GH by radioimmunoassay prior to and 5 and 20 minutes after injection; result in words. The protocol:
In addition to the in vitro tests for secretion of growth hormone, in vivo experiments are also run by injecting the synthetic peptide through an indwelling catheter into freely running normal male rats. Animals are pretreated with FLA-63, a dopamine hydroxylase inhibitor that suppresses spontaneous GH secretion without affecting the response to exogenous GRF. Blood samples are taken through the same catheter immediately prior to and 5 and 20 minutes after injections; GH levels in blood are measured by radioimmunoassay. […] Dosages between about 40 nanograms and about 25 micrograms per Kg. of body weight are considered to be effective in causing secretion.

Square brackets hold non-standard residues; d marks the D form. Ends that are not written are not given here. Peptide text beside a SMILES is read from it. Nle = CCCC[C@H](N)C(=O)O

`CCCC[C@H](NC(=O)[C@@H](NC(=O)[C@H](CC(=O)O)NC(=O)[C@H](CCC(N)=O)NC(=O)[C@H](CC(C)C)NC(=O)[C@H](CC(C)C)NC(=O)[C@H](CCCCN)NC(=O)[C@H](CCCNC(=N)N)NC(=O)[C@H](C)NC(=O)[C@H](CO)NC(=O)[C@H](CC(C)C)NC(=O)[C@H](CCC(N)=O)NC(=O)CNC(=O)[C@H](CC(C)C)NC(=O)[C@@H](NC(=O)[C@H](CCCCN)NC(=O)[C@H](CCCNC(=N)N)NC(=O)[C@H](Cc1ccc(O)cc1)NC(=O)[C@H](CO)NC(=O)[C@H](CC(N)=O)NC(=O)[C@@H](NC(=O)[C@H](Cc1ccccc1)NC(=O)[C@@H](NC(=O)[C@H](C)NC(=O)[C@H](CC(=O)O)NC(=O)[C@H](C)NC(=O)[C@@H](N)Cc1ccc(O)cc1)[C@@H](C)CC)[C@@H](C)O)C(C)C)[C@@H](C)CC)C(=O)N[C@@H](CC(N)=O)C(=O)N[C@@H](CCCNC(=N)N)C(N)=O` [[Nle^27,Asn^28]--hGRF(1-29)-NH2, H--Tyr--Ala--Asp--Ala--Ile--Phe--Thr--Asn--Ser--Tyr--Arg--Lys--Val--Leu--Gly--Gln--Leu--Ser--Ala--Arg--Lys--Leu--Leu--Gln--Asp--Ile--Nle--Asn--Arg--NH2] (H-YADAIFTNSYRKVLGQLSARKLLQDI[Nle]NR-NH2): in assay [1], the Comparison % stood at 520%.
On to `CC[C@H](C)[C@H](NC(=O)[C@H](C)NC(=O)[C@H](CC(=O)O)NC(=O)[C@H](C)NC(=O)[C@@H](N)Cc1c[nH]cn1)C(=O)N[C@@H](Cc1ccccc1)C(=O)N[C@H](C(=O)N[C@@H](CO)C(=O)N[C@@H](CO)C(=O)N[C@@H](Cc1ccc(O)cc1)C(=O)N[C@@H](CCCNC(=N)N)C(=O)N[C@@H](CCCNC(=N)N)C(=O)N[C@H](C(=O)N[C@@H](CC(C)C)C(=O)NCC(=O)N[C@@H](CCC(N)=O)C(=O)N[C@@H](CC(C)C)C(=O)N[C@@H](Cc1ccc(O)cc1)C(=O)N[C@@H](C)C(=O)N[C@@H](CCCNC(=N)N)C(=O)N[C@@H](CCCCN)C(=O)N[C@@H](CC(C)C)C(=O)N[C@@H](CC(C)C)C(=O)N[C@@H](Cc1c[nH]cn1)C(=O)N[C@@H](CCC(=O)O)C(=O)N[C@H](C(=O)N[C@@H](CCSC)C(=O)N[C@@H](CC(N)=O)C(=O)N[C@@H](CCCNC(=N)N)C(=O)N[C@@H](CCC(N)=O)C(=O)N[C@@H](CCC(N)=O)C(=O)NCC(=O)N[C@@H](CCC(=O)O)C(=O)N[C@@H](CCCNC(=N)N)C(=O)N[C@@H](CC(N)=O)C(=O)N[C@@H](CCC(N)=O)C(=O)N[C@@H](CCC(=O)O)C(=O)N[C@@H](CCC(N)=O)C(=O)N[C@@H](CCCNC(=N)N)C(=O)N[C@@H](CO)C(=O)N[C@@H](CCCNC(=N)N)C(=O)N[C@@H](Cc1ccccc1)C(=O)N[C@@H](CC(N)=O)C(=O)O)[C@@H](C)CC)[C@@H](C)CC)[C@@H](C)O` [rGRF(1-43)--OH, H--His--Ala--Asp--Ala--Ile--Phe--Thr--Ser--Ser--Tyr--Arg--Arg--Ile--Leu--Gly--Gln--Leu--Tyr--Ala--Arg--Lys--Leu--Leu--His--Glu--Ile--Met--Asn--Arg--Gln--Gln--Gly--Glu--Arg--Asn--Gln--Glu--Gln--Arg--Ser--Arg--Phe--Asn--OH], for which the “stimulation of the secretion of pituitary GH in vivo” value in assay [2] is listed as “powerful stimulators of the secretion of pituitary GH”. Moreover, the maximum effective concentration in assay [1] (in vitro GH secretion, cultured rat pituitary cells) worked out at 1 nM. Further, the “release of GH from cultured pituitary cells” value in assay [1] (result in words) is on record as “releases GH from cultured pituitary cells”.
“npGRF(1-40)-OH: synthetic hpGRF(1-40)--OH used as a standard in the in vitro assays (YADAIFTNSYRKVLGQLSARKLLQDIMSRQQGESNQERGA-OH; UniProt P01286 32-71, looked up, fragment) [reference compound]” returned a Comparison % in assay [1] of 100%.

The record behind these values is patent US4628043A, “Hypothalamic GRF agonists” (The Salk Institute for Biological Studies, priority 1985, dated 1986).
